Test [1] concerns C. glabrata in vitro translation. The experiment in a line: In vitro translation assay, C. glabrata. In kind it is biochemical. The conditions noted are these: average of three independent experiments. As for the experimental part: (§1) In vitro translation assays were performed as described in Shastry, et al. Microbiology, 2001, 147(2):383-90. The IC50 values are the average of three independent experiments. The lower limit of sensitivity is about 0.005 μg/ml.

Test [2] has as its target C. krusei/SIII (S. cerevisiae strain expressing C. krusei eEF2) (Pichia kudriavzevii, UniProt A0A2U9R6P9). Nature of the test: SwordIII growth inhibition assay, C. krusei/SIII strain. In kind it is cell-based. From the text: (§2) Sordarin and its derivatives bind to the eEF2-ribosome-nucleotide complex in sensitive fungi. Through different in vitro assays using purified components from human, yeast and plant cells, it has been shown that the selective sensitivity to sordarin and its derivatives is dependent on fungal eEF2. The fungal specificity of the sordarin makes eEF2 an attractive anti-infective target. (J Biol Chem. 1998, Feb 6; 273(6):3148-51).
(§3) Specifically, natural products are screened which show a differential activity between the human control and the other strains, although a 100% differential is not required in the initial discovery effort. It may be possible to observe hits solely against the fungal eEF2s, and/or the protozoal eEF2s. In sum, SWORDIII is designed to identify inhibitors of fungal and protozoal eEF2s to provide opportunities for developing anti-infective agents with a unique and selective mechanism of action.
(§4) For this reason, the eEF2 encoding genes from different organisms and several species of pathogenic fungi have been cloned, characterized and expressed in S. cerevisiae at Merck Research Laboratory, as previously described (Microbiology 147:383-90, 2001). Site directed mutagenesis of the C. parapsilosis gene encoding eEF2 to create S521Y, N523S single mutants and the S521Y, N523S double mutant was accomplished by the PCR overlap extension technique (Gene 77:51-59, 1989). […]

The target of test [3] is C. lusitaniae/SIII (S. cerevisiae strain expressing C. lusitaniae eEF2) (Clavispora lusitaniae, UniProt C4YCF8). Nature of the test: SwordIII growth inhibition assay, C. lusitaniae/SIII strain. Type of test: cell-based.
Text: as §2, §3, §4

In test [4] the target is E. tenella/SIII (S. cerevisiae strain expressing E. tenella eEF2) (Eimeria tenella, UniProt A0A184W4F4). The experiment in a line: SwordIII growth inhibition assay, E. tenella/SIII strain. Type of test: cell-based.
Chain of E. tenella/SIII (S. cerevisiae strain expressing E. tenella eEF2) (A0A184W4F4 1-832, change not shown): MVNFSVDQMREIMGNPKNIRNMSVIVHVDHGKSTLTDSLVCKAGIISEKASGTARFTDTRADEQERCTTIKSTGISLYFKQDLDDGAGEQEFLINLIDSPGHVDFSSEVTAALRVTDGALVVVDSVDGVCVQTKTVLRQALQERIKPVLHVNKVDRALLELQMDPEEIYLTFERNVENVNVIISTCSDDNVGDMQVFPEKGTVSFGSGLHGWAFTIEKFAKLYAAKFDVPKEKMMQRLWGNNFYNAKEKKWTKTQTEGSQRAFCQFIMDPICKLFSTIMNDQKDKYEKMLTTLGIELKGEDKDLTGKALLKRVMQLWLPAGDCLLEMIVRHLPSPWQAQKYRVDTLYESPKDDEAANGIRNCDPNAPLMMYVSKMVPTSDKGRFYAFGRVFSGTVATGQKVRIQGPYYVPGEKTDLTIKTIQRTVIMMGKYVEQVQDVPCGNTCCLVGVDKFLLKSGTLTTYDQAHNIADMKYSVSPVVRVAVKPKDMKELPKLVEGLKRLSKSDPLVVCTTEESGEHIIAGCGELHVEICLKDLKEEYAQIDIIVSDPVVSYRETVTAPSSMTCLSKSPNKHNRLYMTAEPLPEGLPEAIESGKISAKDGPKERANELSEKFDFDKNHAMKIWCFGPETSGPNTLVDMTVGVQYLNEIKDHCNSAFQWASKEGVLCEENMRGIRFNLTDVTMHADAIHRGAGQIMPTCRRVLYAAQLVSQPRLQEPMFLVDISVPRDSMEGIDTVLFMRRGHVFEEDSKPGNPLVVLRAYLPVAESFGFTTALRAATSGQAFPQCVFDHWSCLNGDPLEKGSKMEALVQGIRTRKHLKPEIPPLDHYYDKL
Text: as §2, §3, §4

Test [5] deals with C. krusei in vitro translation. The experiment in a line: In vitro translation assay, C. krusei. The conditions noted are these: average of three independent experiments. In kind it is biochemical. As for the experimental part:
as §1

In test [6] the test system is A. nidulans in vitro translation. The experiment in a line: In vitro translation assay, A. nidulans. The conditions noted are these: average of three independent experiments. In kind it is biochemical. As for the experimental part:
as §1

The subject of test [7] is C. neoformans in vitro translation. Nature of the test: In vitro translation assay, C. neoformans. In kind it is biochemical. The conditions noted are these: average of three independent experiments. As for the experimental part: as §1
Test [8] has as its target T1, C. glabrata/SIII (S. cerevisiae strain expressing C. glabrata eEF2) (Candida glabrata, UniProt Q6FYA7).
T1 construct: S. cerevisiae strains expressing full length heterologous eEF2s; expressed in transfected cells; host or cells: S. cerevisiae Δeft1 Δeft2 deletion strain YEFD12h
The experiment in a line: SwordIII growth inhibition assay, C. glabrata/SIII strain. Type of test: cell-based.
Text: as §2, §3, §4

Test [9] concerns S. cerevisiae in vitro translation. The experiment in a line: In vitro translation assay, S. cerevisiae. In kind it is biochemical. The conditions noted are these: average of three independent experiments, lower limit of sensitivity about 0.005 μg/ml. As for the experimental part: as §1
Test [10] addresses T2, S. cerevisiae/SIII (S. cerevisiae strain, S. cerevisiae eEF2) (Saccharomyces cerevisiae, UniProt P32324).
T2 construct: expressed in transfected cells; host or cells: S. cerevisiae Δeft1 Δeft2 deletion strain YEFD12h
Nature of the test: SwordIII growth inhibition assay, S. cerevisiae/SIII strain. In kind it is cell-based.
Text: as §2, §3, §4

Test [11] has as its system C. guilliermondi in vitro translation. The experiment in a line: In vitro translation assay, C. guilliermondi. In kind it is biochemical. As to conditions: average of three independent experiments, lower limit of sensitivity about 0.005 μg/ml. As for the experimental part:
as §1

The test system of test [12] is C. parapsilosis in vitro translation. The experiment in a line: In vitro translation assay, C. parapsilosis. In kind it is biochemical. The conditions noted are these: average of three independent experiments. As for the experimental part: as §1
For test [13], the target named is A. fumigatus/SIII (S. cerevisiae strain expressing A. fumigatus eEF2) (Aspergillus fumigatus, UniProt Q4X0G7). The experiment in a line: SwordIII growth inhibition assay, A. fumigatus/SIII strain. Type of test: cell-based.
Chain of A. fumigatus/SIII (S. cerevisiae strain expressing A. fumigatus eEF2) (Q4X0G7 1-839, change not shown): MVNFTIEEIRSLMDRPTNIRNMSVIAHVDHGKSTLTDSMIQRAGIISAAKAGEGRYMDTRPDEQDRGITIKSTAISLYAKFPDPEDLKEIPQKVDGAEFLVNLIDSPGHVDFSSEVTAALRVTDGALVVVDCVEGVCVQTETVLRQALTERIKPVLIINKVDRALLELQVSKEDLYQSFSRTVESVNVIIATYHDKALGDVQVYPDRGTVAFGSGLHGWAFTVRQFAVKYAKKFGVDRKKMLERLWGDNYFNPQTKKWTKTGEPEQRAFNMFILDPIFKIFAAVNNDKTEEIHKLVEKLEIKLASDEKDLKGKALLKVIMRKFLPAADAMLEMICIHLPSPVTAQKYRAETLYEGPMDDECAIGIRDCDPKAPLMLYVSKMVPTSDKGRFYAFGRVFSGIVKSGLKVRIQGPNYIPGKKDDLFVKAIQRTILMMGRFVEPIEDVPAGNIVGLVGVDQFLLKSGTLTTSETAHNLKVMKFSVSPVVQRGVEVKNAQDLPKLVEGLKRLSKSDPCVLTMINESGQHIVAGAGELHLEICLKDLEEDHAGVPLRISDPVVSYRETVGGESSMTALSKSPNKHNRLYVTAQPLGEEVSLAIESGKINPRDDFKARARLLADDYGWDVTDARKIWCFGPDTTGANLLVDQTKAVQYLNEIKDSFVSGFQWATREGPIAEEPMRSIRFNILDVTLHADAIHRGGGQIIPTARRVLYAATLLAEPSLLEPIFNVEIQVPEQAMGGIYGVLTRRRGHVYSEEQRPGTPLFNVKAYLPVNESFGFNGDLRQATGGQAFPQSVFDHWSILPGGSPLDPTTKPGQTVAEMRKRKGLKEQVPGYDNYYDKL
Text: as §2, §3, §4

Test [14] relates to C. albicans in vitro translation. The experiment in a line: In vitro translation assay, C. albicans. Type of test: biochemical. The conditions noted are these: average of three independent experiments, lower limit of sensitivity about 0.005 μg/ml. As for the experimental part: as §1
Test [15] deals with C. neoformans/SIII (S. cerevisiae strain expressing C. neoformans eEF2) (Cryptococcus neoformans, UniProt Q9HFZ8). The experiment in a line: SwordIII growth inhibition assay, C. neoformans/SIII strain. In kind it is cell-based.
Chain of C. neoformans/SIII (S. cerevisiae strain expressing C. neoformans eEF2) (Q9HFZ8 1-838, change not shown): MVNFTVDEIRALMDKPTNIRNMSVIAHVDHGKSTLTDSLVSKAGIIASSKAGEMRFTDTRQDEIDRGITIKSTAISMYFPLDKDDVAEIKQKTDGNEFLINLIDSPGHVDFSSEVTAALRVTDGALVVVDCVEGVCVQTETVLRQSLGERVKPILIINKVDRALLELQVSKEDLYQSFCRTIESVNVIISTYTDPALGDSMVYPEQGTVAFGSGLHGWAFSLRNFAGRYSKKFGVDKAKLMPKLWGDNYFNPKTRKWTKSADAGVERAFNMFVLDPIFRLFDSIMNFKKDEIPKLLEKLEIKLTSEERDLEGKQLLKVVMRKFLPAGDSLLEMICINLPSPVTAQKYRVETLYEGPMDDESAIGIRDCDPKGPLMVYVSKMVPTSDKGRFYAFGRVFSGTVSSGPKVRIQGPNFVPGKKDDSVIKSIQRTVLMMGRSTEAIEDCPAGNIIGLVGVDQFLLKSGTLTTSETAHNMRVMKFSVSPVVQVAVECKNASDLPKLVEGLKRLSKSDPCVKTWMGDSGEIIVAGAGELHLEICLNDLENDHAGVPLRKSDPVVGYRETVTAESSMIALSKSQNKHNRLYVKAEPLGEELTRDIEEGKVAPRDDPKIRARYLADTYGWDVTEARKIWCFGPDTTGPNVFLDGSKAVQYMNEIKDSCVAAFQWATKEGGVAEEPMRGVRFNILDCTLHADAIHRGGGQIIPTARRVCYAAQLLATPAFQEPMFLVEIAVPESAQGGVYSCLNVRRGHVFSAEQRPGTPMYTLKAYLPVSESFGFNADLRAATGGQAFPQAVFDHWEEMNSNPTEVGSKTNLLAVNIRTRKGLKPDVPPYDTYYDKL
Text: as §2, §3, §4

Test [16] concerns C. lusitaniae in vitro translation. Nature of the test: In vitro translation assay, C. lusitaniae. Type of test: biochemical. The conditions noted are these: average of three independent experiments. As for the experimental part: as §1
The target in test [17] is Human/SIII (S. cerevisiae strain expressing human eEF2) (UniProt P13639, cells depend on it, species not given). Nature of the test: SwordIII growth inhibition assay, Human/SIII strain. In kind it is cell-based.
Text: as §2, §3, §4

Where [18] appears, read: SC medium, 29° C., approximately 16 hours, read-out: IC50 (μg/ml).
The mark [19] stands for this setting: read-out: IC50 (μg/ml), SC medium, 29° C., approximately 16 hours.

Data on two compounds can be found in patent publication US20040242904A1, “Novel sordarin derivative isolated from culture fermentations and functions as an antifungal agent” (priority 2001, published 2004).

Values after ≈ are worked out from the molar mass of the structure shown. Where two headings read alike, the source gives them in different places.

T1 sequence (Q6FYA7 whole entry): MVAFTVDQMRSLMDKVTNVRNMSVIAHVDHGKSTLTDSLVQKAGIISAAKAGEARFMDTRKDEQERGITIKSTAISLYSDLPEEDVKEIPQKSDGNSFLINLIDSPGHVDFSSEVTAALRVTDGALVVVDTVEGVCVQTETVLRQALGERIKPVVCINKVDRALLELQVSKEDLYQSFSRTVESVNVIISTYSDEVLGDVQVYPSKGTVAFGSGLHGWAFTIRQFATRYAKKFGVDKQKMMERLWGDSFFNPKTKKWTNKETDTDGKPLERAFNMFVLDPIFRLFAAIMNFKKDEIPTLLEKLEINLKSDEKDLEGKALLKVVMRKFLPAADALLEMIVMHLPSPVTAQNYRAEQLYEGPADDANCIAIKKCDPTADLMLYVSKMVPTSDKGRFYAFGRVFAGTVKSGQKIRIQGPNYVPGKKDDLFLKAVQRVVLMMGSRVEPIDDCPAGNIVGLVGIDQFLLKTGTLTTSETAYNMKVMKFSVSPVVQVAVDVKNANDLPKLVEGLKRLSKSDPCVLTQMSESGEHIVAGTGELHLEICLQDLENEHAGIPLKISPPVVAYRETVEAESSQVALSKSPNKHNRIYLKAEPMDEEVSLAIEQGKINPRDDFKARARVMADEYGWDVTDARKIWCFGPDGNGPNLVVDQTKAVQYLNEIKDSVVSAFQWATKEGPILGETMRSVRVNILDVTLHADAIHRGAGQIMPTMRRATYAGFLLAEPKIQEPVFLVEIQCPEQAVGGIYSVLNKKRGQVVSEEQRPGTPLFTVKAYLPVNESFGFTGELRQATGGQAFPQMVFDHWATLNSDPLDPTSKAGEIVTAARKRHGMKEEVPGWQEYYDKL
T2 sequence (P32324 whole entry): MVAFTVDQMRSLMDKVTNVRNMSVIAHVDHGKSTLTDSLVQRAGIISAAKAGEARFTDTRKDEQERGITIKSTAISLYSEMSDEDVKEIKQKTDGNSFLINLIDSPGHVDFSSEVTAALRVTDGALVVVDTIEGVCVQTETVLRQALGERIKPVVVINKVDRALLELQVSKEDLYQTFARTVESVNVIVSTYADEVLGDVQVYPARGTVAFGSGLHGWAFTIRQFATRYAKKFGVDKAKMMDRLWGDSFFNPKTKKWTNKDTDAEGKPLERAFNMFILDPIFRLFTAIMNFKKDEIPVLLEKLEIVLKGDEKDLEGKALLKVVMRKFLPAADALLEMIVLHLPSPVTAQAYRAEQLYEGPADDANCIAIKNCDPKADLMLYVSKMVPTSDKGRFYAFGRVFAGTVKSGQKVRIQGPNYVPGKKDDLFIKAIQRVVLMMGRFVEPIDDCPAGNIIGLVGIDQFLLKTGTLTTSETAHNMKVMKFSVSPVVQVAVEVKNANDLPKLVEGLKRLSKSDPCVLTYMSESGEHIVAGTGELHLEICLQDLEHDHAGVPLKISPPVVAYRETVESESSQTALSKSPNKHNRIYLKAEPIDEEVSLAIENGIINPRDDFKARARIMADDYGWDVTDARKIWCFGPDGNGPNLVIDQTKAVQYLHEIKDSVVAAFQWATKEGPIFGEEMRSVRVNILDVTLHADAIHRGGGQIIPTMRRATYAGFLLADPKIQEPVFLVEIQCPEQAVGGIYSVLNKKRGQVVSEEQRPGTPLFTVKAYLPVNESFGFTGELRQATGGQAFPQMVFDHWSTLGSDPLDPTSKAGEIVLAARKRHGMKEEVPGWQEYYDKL
Chain of C. krusei/SIII (S. cerevisiae strain expressing C. krusei eEF2) (A0A2U9R6P9 1-830, stated change not applied): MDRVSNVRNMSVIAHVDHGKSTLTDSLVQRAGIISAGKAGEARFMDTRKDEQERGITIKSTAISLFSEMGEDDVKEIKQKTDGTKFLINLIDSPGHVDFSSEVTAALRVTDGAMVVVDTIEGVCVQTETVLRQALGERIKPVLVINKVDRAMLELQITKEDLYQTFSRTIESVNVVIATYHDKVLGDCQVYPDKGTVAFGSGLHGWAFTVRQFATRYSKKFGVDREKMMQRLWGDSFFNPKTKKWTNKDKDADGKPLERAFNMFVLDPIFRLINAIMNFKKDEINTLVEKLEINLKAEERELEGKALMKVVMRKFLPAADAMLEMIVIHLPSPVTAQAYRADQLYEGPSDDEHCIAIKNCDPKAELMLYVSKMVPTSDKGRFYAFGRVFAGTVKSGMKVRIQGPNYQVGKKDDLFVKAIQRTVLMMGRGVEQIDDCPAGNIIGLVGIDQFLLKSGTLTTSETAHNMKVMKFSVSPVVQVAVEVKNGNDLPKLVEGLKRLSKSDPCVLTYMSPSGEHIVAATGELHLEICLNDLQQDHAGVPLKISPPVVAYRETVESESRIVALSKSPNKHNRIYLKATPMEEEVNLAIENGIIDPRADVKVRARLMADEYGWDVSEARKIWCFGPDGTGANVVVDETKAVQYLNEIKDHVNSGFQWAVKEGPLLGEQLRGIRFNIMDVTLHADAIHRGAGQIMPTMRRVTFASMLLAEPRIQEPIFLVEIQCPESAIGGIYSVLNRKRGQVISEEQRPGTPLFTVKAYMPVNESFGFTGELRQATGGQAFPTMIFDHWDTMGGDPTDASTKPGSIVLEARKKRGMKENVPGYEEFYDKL

With `CO[C@H]1[C@@H](O)[C@H](O)[C@H](OC[C@@]23C[C@@H]4[C@H](C)CC[C@H]4[C@@]4(C=O)CC2C=C(C(C)C)[C@@]34C(=O)O)O[C@@H]1C` [Sordarin], the “IC50” value was 0.036 µg/mL (≈ 0.0731 µM) in test [1]; > 203 µM in test [2] (setting [18]); > 203 µM in test [3] (setting [18]); > 203 µM in [4] (setting [18]); >100 µg/mL in test [5]; 2.6 µg/mL (≈ 5.28 µM) in [6]. Besides, the “IC50” value was 0.2 µg/mL (≈ 0.406 µM) in test [7]; 12.7 µM in test [8]; 0.006 µg/mL (≈ 0.0122 µM) in [9]; 0.386 µM in test [10]; 0.01 µg/mL (≈ 0.0203 µM) in test [11]; >100 µg/mL in test [12]. For the same compound, the IC50 was > 203 µM in test [13] (setting [18]), 0.006 µg/mL (≈ 0.0122 µM) in [14], > 203 µM in test [15] (setting [18]) and >100 µg/mL in test [16]. In addition, the GI50 in test [17] (setting [18]) was > 203 µM.

On to `COC1C(C)OC(OCC23CC4C(C)CCC4C4(C=O)CC2C=C(C(C)C)C43C(=O)O)C(O)C12OC(=O)C(CCCCCCCC(=O)O)O2` (stereo not shown) [The Compound of Formula I], for which the “IC50” value was 0.015 µg/mL in test [1]; 21.7 µM in [2] (setting [19]); > 29 µM in [3] (setting [19]); > 29 µM in [4] (setting [19]); 1 µg/mL in test [5]; 0.6 µg/mL in test [6]. The “IC50” value in [7] is 0.02 µg/mL; in test [8], 7.24 µM; in test [9], 0.006 µg/mL; in [10], 0.217 µM; in test [11] it was 0.006 µg/mL; in test [12] it was 0.5 µg/mL. Moreover, the IC50 in [13] (setting [19]) is 29 µM; in test [14], 0.006 µg/mL; in test [15] (setting [19]) it was 7.24 µM; in test [16] it was 0.5 µg/mL. Also, the GI50 in [17] (setting [19]) was > 29 µM.
